Data from patent US4072689A, “Monoamino 2,4,5-trisubstituted oxazoles” (Gruppo Lepetit S.p.A., priority 1975, dated 1978).

Tests used:
[1] = acute toxicity, LD50 p.o. mice; conditions: mouse, in vivo, po
[2] = tested on: carrageenin induced edema; assay: carrageenin-induced edema test, oral administration; format: in vivo, rats; conditions: mice
Method: The compounds of the invention have antiinflammatory activity. […] The compounds are orally administered at dosages varying from 10 to 200 mg/kg. and the observed percent decreases of the induced edema are between about 30 and about 65. The acute toxicity of these compounds is ordinarily very low, almost always being higher than 1000 mg/kg. Moreover the compounds of this invention are much less ulcerogenic than other known and wisely used anti-inflammatories, such as, for example, phenylbutazone.

Structure (SMILES)	LD50 [1]	Percent inhibition of carrageenin induced edema ([2]; dose 50 mg/kg p.o.)	Percent inhibition of carrageenin induced edema ([2]; dose 100 mg/kg p.o.)	Percent inhibition of carrageenin induced edema ([2]; dose 200 mg/kg p.o.)
Cc1oc(-c2ccccc2)nc1C(N)=O [Example 2, 4-Carbamoyl-5-methyl-2-phenyloxazole]	> 1000 mg/kg	29%	42%	53%
Cc1nc(-c2ccccc2)oc1C(N)=O [Example 1, 5-Carbamoyl-4-methyl-2-phenyloxazole]	> 1000 mg/kg	30%	43%	64%
